Consider 5 compounds from US20260327250A1, “3-ETHYLAMINO-INDOLE DIMERS AS SEROTONERGIC AGENTS USEFUL FOR THE TREATMENT OF DISORDERS RELATED THERETO” (MINDSET PHARMA INC., priority 2022, published 2026).

Molecules are shown by their SMILES. Where a name gives a salt, the structure may show the parent alone.

Data set [1] addresses T1, human 5-hydroxytryptamine receptor 1A (5-HT1A) (Homo sapiens, UniProt P08908).
T1 construct: expressed in transfected cells; host or cells: HTR1A&Ga15-CHO
T1 sequence (P08908 1-422): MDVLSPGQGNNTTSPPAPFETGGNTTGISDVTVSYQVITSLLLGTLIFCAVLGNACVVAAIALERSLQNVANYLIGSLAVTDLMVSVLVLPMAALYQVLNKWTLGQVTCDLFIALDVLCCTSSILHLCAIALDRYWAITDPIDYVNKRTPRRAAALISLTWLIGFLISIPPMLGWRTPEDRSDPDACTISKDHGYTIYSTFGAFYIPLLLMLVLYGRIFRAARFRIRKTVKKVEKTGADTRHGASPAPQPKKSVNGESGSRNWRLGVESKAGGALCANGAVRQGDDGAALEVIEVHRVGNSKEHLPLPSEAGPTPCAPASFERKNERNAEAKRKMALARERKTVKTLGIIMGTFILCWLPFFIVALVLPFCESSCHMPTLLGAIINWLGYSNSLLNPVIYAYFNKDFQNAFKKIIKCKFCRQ
The experiment in a line: Human 5-HT1A functional FLIPR assay (agonist mode). In kind it is cell-based. Particulars: footnote: Curve fitting with activation (%) @ 10 mM with RFU. The protocol:
The potential excitatory effects of compounds targeting on 5-hydroxytryptamine receptor 1A under agonist mode was assessed.
HTR1A&Ga15-CHO cells were cultured in DMEM/F12 medium containing 10% dialyzed FBS, 1× penicillin-streptomycin and 600 μg/mL Hygromycin B. The cells were passaged about three times a week, maintained between […] confluence.
• 1. The cell culture medium (DMEM/F12 medium containing 10% dialyzed FBS, 1× penicillin-streptomycin and 600 μg/mL Hygromycin B), TrypLE™ Express and DPBS was warmed to R.T. in advance. • 2. The cell culture medium was removed from the flask. The cells were washed with DPBS. • 3. 1 mL TrypLE™ Express was added to the flask, mixed well by gentle shaking and then cells were incubated at 37° C. for a few minutes. • 4. The cells morphological change was checked under microscope, and the digestion stopped by adding 2 mL cell culture medium to the flask when most of cells turned to round. • 5. The cell suspension was transferred into a 15 mL centrifuge tube, and then centrifuged at 1,200 rpm for 5 minutes. • 6. The supernatant was removed. The cell pellet was resuspended with 2 mL cell culture medium. • 7. The cell density was counted using cell counter. Only cells with >85% viability were used for the assay. • 8. The cells were diluted to 4×10^5/mL with cell culture medium. • 9. 30 μL/well cell suspensions were added into a 384-well cell plate (The cell density was 12,000 cells/well). • 10. The cell plate was incubated overnight at 37° C., 5% (v/v) CO2. 3.3 Cell handling • 1. On the day of experiments, culture medium was removed from the cell plate. • 2. 10 μL of assay buffer (20 mM HEPES, in 1× HBSS, pH 7.4) was added to each well of the cell plate. • 3. 2× dye solution was prepared following the manufacture's instruction of the FLIPR® Calcium 6 assay kit: • i. The dye was diluted with assay buffer. • ii. Probenecid was added to the final concentration of 5 mM. • iii. Vigorously vortex for 1-2 minutes, and pH was adjusted to 7.4. • 4. 10 μL of 2× dye solution was added to each well of the cell plate. • 5. The cell plate was placed on plate shaker, followed by shaking at 600 rpm for 2 minutes. • 6. The plate at 37° C. was incubated for 2 hours followed by an additional 15-minute incubation at 25° C.
• 1. Serotonin was prepared to the concentration of 10 mM with DMSO, 3-folds serial dilutions were performed with DMSO. • 2. The test compounds were prepared to the concentration of 10 mM with DMSO, 3-folds serial dilutions were performed with DMSO. • 3. The compounds were added to a 384-well compound source plate. • 4. 90 nL/well of serial diluted compounds were transferred from source plate to a 384-well compound plate by using an Echo. • 5. 30 μL/well of assay buffer was added to the compound plate. • 6. The plate-on-plate shaker was mixed for 2 minutes.
• 1. After the cells had incubated with dye solution, the cell plate, compound plate containing 3×compounds and FLIPR tips were placed into FLIPR. • 2. 10 μL of 3×compounds were transferred from the compound plate to the cell plate by FLIPR. • 3. The plate was read for 160 sec with 1 sec interval to obtain the data of agonist mode.
• 1. The normalized fluorescence reading (RFU) was calculated as shown below, wherein Fmax and Fmin stand for maximum and minimum of calcium signal during defined time window:
2. EC50 was calculated by fitting RFU against log of compound concentrations with Hill equation using XLfit.

The nature of data set [2]: in vitro. Particulars: rat, microsomes.
Description: (§1) The concentrations of parent compounds in reaction systems were evaluated by LC-MS/MS for estimating the stability in pooled human, male rat and male mouse liver microsomes. The in vitro intrinsic clearances of test compounds were determined as well. Protocol
(§2) A master solution in the “Incubation Plate” containing phosphate buffer, ultra-pure H2O, MgCl2 solution and liver microsomes was made according to Table 6. The mixture was pre-warmed at 37° C. water bath for 5 minutes.
(§3) The reaction was started with the addition of 4 μL of 200 μM exemplary test compounds of the application or control compounds to each master solution to get the final concentration of 2 μM. This study was performed in duplicate.
(§4) Aliquots of 50 μL were taken from the reaction solution at 0, 15, 30, 45 and 60 minutes. The reaction solutions were stopped by the addition of 4 volumes of cold methanol with IS (100 nM alprazolam, 200 nM imipramine, 200 nM labetalol and 2 μM ketoprofen). Samples were centrifuged at 3,220 g for 40 minutes. Aliquot of 90 μL of the supernatant was mixed with 90 μL of ultra-pure H2O and then was used for LC-MS/MS analysis.
(§5) All calculations were carried out using Microsoft Excel. Peak area ratios of test compound to internal standard (listed in the below table) were determined from extracted ion chromatograms.
(§6) All calculations were carried out using Microsoft Excel. Peak areas were determined from extracted ion chromatograms. The slope value, k, was determined by linear regression of the natural logarithm of the remaining percentage of the parent drug vs. incubation time curve.
(§7) The in vitro half-life (in vitro t½) was determined from the slope value:
(§8) Conversion of the in vitro t½ (min) into the in vitro intrinsic clearance (in vitro CLint, in μL/min/mg proteins) was done using the following equation (mean of duplicate determinations):
Data set [3] is described as follows: in vitro. Particulars: mouse, microsomes.
Description: as §1, §2, §3, §4, §5, §6, §7, §8

On to `CC(C)N(CCc1c[nH]c2cccc(O)c12)C(C)C` [Compound 7], for which, in data set [1], the “RFU@10 μM” value was found to be 74 RFU.

A word on the half-life: it is the time needed for the level to fall by half in the phase considered. The low end stands for rapid decline, the high end for slow decline. Broadly, the microsomal CLint is the capacity of the preparation to metabolise the compound, expressed as a volume cleared per time. A high value points to rapid turnover. For orientation: amount remaining means the share of the starting amount still present when the sample was taken. A higher amount remaining goes with greater stability. Regarding `CN(C)CCc1c[nH]c2cccc(OC(=O)CCCC(=O)Oc3cccc4[nH]cc(CCN(C)C)c34)c12` [Compound I-24, Bis(3-(2-(dimethylamino)ethyl)-1H-indol-4-yl) glutarate], in “in vitro [2]”, the half-life at 2 µM is below 4.51 min; the microsomal CLint at 2 µM was above 307 µL/min/mg; the fraction remaining at 1 h, 2 µM came out at 0%. Besides, in the data set “in vitro [3]”, the half-life at 2 µM was below 4.51 min; the microsomal CLint at 2 µM is above 307 µL/min/mg; the amount remaining at 1 h, 2 µM amounted to 0%. In data set [1], the “RFU@10 μM” value was 169 RFU.

As for `CC(C)N(CCc1c[nH]c2cccc(OC(=O)CCCC(=O)Oc3cccc4[nH]cc(CCN(C(C)C)C(C)C)c34)c12)C(C)C` [Compound I-37, Bis(3-(2-(diisopropylamino)ethyl)-1H-indol-4-yl) glutarate dihydrochloride], in the data set “in vitro [2]”, the half-life at 2 µM is below 4.51 min; the intrinsic metabolic clearance (microsomal CLint) at 2 µM is above 307 µL/min/mg; the amount remaining at 1 h, 2 µM was 0%. In “in vitro [3]”, the half-life at 2 µM is below 4.51 min; the microsomal CLint at 2 µM is above 307 µL/min/mg; the amount remaining at 1 h, 2 µM amounted to 0%. In data set [1], the “RFU@10 μM” value stood at 62 RFU.

For the compound `CN(C)CCc1c[nH]c2cccc(O)c12` [Psilocin, 4-hydroxy-N,N-dimethyltryptamine, reference compound], the amount remaining at 1 h, 2 µM in “in vitro [2]” is 62.7%; in the data set “in vitro [3]”, 96.9%. Further, in data set [1], the “RFU@10 μM” value is listed as 140 RFU.

Regarding `CN(C)CCc1c[nH]c2cccc(OP(=O)(O)O)c12` [Psilocybin], the “RFU@10 μM” value in data set [1] came to 143 RFU.
